The subject of this assay is β-cells (dispersed rat islet cells). Briefly: primary islet β-cell replication assay (PDX-1/ki-67 co-staining, automated imaging). Format: cell-based. As for the experimental part:
Rat islets were isolated as previously described in Gotoh M, Maki T, Kiyoizumi T, Satomi S, Monaco A P: An improved method for isolation of mouse pancreatic islets. Transplantation 40:437-438, 1985, contents of which are herein incorporated by reference in their entirety. Isolated islets were cultured overnight in a tissue culture incubator. The following morning, islets were trypsinized into cellular clusters of 1-3 cells, re-suspended in islet media (Mediatech 99-786-CV; 10% FBS serum (Valley Biomedial BS3033); 8.3 mM Glucose (Sigma G7528); 1× Penicillin/Streptomycin (Invitrogen 15070-063); 1× Glutamax (Invitrogen 35050-079)) and plated into the wells of a 96-well plate (Sigma CLS3904) that had been coated with 804G (a rat bladder carcinoma cell line) conditioned media. The cellular plating density was 60 k cells/well and greater than 95% viability was confirmed at the time of plating. […] For screening, compounds were tested at 1 uM concentration in duplicate. After 24-hours of compound treatment, cells were fixed with fresh 4% PFA (Electron Microscopy Services 15710) for 20 minutes and washed with PBS (VWR 45000-446). Antigen retrieval was performed by heating the cells to 90 degrees Celsius in 0.1 mM EDTA (Ambion AM9260G) in PBS. Cells were then washed and permeabalized with PBS/0.3% Triton X-100 (J.T.Baker X198-07) for 15 minutes. Immunocytochemical staining was then performed as follows. Antigen blocking was performed with 5% normal donkey serum (Jackson ImmunoResearch 017-000-121) in PBS for an hour. Staining was performed by overnight incubation with primary antibody at 4 degrees Celsius. For the primary screen, PDX-1 antibody (R&D AF2419) was used to reveal beta-cells and ki-67 antibody (BD Bioscience 556003) to visualize proliferating cells. Without wishing to be bound by theory, the failure of prior beta-cell replication screens is primarily a consequence of using a cytoplasmic marker (Insulin) as the β-cell identifier. The use of a cytoplasmic marker prevents accurate attribution of nuclear replication to a specific cell identity i.e., in dense culture it is impossible to attribute a cytoplasm to a specific nucleus given the proximity to multiple nuclei. Additional Immunohistochemistry antibodies included Phosphohistone 3 (Millipore 06-570), Insulin (Dako A0564), Glucagon (Millipore 4031-01F) and Vimentin (Millipore ab5733). For western blotting anti-bodies included ADK (Abcam ab38010, ab64825) and RAN (BD Bioscience 610340) as a loading control.
Once compound-treated islet cells were stained, β-cell replication was assessed via automated image acquisition and analysis using a Cellomics ArrayScanVTI. The acquisition thresholds/parameters were established such that the computer-based calls of replication events were consistent with human-based calls. The parameters used were directed at the identification of (1) PDX-1+ cells and (2) ki-67 positive staining within the PDX-1 positive area. The algorithm was a three step process. First the nuclear area was predicted by the software based upon the expected PDX-1 staining pattern. Second PDX-1 positive cells (selected objects) were counted based upon the average staining intensity within the predicted nuclear area (Note: total signal intensity was essentially equal in quality but was not typically used). Third, the number of PDX-1 positive cells (selected objects) that simultaneously were Ki-67 positive was determined by determining the average fluorescence intensity of ki-67 staining within the predicted nuclear area (again, total intensity was also occasionally used with equal efficacy). The specific thresholds (fluorescence intensities) varied from experiment to experiment. In general, the basal replication rate was set at roughly 1% i.e., the algorithm was varied until 1% of DMSO treated PDX+ cells were reported to be double positive for PDX-1 and ki67. […]

Where two headings read alike, the source gives them in different places.

As for `Nc1ncnc2c1c(I)cn2[C@@H]1O[C@H](CO)[C@@H](O)[C@H]1O` [A10, 5-iodotubercidin], the “induction of β-cell replication in the screening assay” value (1 uM, 24 hours) came to 2.3 fold. Besides, the “induction of the replication rate above the base-line rate, combination with high glucose” value (5-IT 2 μM plus high glucose) is 5 fold. In addition, the “β-cell replication effect of addition of 5-IT to the GLP-1R agonists” value (24 h, 5-IT 2 μM plus GLP-1 or Ex-4) is approximately 4 fold. Besides, the “increase of β-cell replication” value (24 h, 5-IT 2 μM, GLP-1 and Ex-4 20 nM and 4 nM, normalized to DMSO) is approximately 2.5 fold. For the setting “A10 2 μM, 0-25 mM glucose”, the “effect of glucose concentration on % beta-cell replication in treated samples” value was “little effect”. For the same molecule, the “% Ki-67 positive cells versus serum concentration” value (A10 2 μM, 0.2%, 2.0% or 20% serum) is “increased with increasing serum concentration”. For the setting “A10 0.019-10 uM, B8 0.23-30 uM”, the “% of Ki-67 positive β-cells (PDX-1 and Ki-67 positive cells), dose curve” value is reported as “increase in a dose dependent manner”. Moreover, the EC50 runs as follows: (FIG. 13c dose-response curves, read-out: EC50, β-cell proliferation in rat islet cultures) 4700 nM; (dose curves FIG. 2a (A10) and FIG. 3 (B8), Ki-67 positive β-cells, read-out: EC50 for β-cell proliferation) 470 nM.

For the origin of these results see patent US20130023491A1, “BETA-CELL REPLICATION PROMOTING COMPOUNDS AND METHODS OF THEIR USE” (President and Fellows of Harvard College, priority 2009, published 2013).
